Assay results reported in patent publication US8802411B2, “ADP detection based luminescent phosphotransferase or ATP hydrolase assay” (Promega Corporation, priority 2008, dated 2014).

Assays:
adenylate cyclase (AC) = assay: Adenylate cyclase assay and inhibition; type: biochemical; settings: for use as inhibitors of adenylate cyclase: calmodulin antagonists, when converting ADP to ATP, FIG. 5
Procedure: Activity of various adenylyl cyclases (ACs) was measured at 30° C. for 30 minutes in the presence of 60 mM Tris pH 7.5, 10 mM MgCl2, 40 nM calmodulin and variable ATP concentrations. Except for those experiments related to AC titration, 100 ng of the AC was used. When used, the calmodulin antagonists were prepared according to the manufacturer's recommendation and were added directly to the AC reaction when direct inhibition was assessed or to the reaction converting ADP to ATP to assess AC inhibition during ATP formation.

pyruvate kinase = biological target: T1, pyruvate kinase (Oryctolagus cuniculus, UniProt P11974); assay: ADP to ATP conversion by pyruvate kinase (ADP detection assay); type: biochemical, rabbit
T1 construct: Pyruvate kinase from rabbit muscle (Sigma Catalog number P9136); purchased Sigma P9136; host or cells: rabbit muscle
Procedure: Pyruvate kinase from rabbit muscle (Sigma Catalog number P9136), myokinase from chicken muscle (Sigma Catalog number M5520), myokinase from rabbit muscle (Sigma Catalog number M3003), creatine phosphokinase from bovine heart (Sigma Catalog number C7886), creatine phosphokinase from rabbit brain (Sigma Catalog number C6638), and creatine phosphokinase from rabbit muscle (Sigma Catalog number C3755) were obtained from Sigma.
80 μL of Reagent 2 (800 μM phosphoenolpyruvate and 800 mU pyruvate kinase in 80 μL Kinase-Glo® Max (Promega Corp.)) were added simultaneously to the kinase or ATPase reaction and incubated for 30-60 minutes at room temperature. The data were collected using a plate reading luminometer (GloMax® 96 Microplate Luminometer).
When the assay was performed in 3 steps, the following modification was introduced. After the ATP depletion step, 20 μL of pyruvate kinase (PK) reagent (40 mM Tris pH 7.0, 335 mM KCl, 500 μM calmidazolium, 500 μM phosphoenolpyruvate, 15 mM EDTA, 0.3 mg/mL BSA and 300-600 mU pyruvate kinase) was added, the reaction incubated for 5-10 minutes, and 100 μL Kinase-Glo® Max (Promega Corp.) was added to detect the ATP produced. After a 10 minute incubation, the plate was read on a plate reading luminometer (GloMax 96 Microplate Luminometer; Promega Corp.).

T1 sequence (P11974 whole entry): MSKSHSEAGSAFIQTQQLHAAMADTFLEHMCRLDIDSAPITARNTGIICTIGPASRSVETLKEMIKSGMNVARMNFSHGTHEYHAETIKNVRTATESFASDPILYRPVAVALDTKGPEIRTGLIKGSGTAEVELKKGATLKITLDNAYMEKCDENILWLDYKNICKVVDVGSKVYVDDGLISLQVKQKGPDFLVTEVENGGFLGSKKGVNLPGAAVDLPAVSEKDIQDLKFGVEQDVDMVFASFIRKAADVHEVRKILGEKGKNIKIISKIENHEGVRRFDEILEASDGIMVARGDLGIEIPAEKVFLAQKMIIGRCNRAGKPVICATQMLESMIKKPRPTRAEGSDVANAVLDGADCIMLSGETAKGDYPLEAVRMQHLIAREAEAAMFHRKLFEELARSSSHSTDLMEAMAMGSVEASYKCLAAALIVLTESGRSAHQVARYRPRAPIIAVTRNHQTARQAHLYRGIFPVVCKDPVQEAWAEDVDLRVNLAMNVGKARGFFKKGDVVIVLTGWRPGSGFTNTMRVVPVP

SMILES | use as inhibitors of adenylate cyclase (adenylate cyclase (AC)) | interference with the pyruvate kinase reaction (pyruvate kinase; inhibitor used to stop or tested in PKA kinase reaction, FIG. 13) | interference with pyruvate kinase conversion of ADP to ATP (pyruvate kinase; even at high calmidozolium concentrations, FIG. 6) | inhibition of AC (adenylate cyclase (AC); FIG. 6)
CN1CCN(CCCN2c3ccccc3Sc3ccc(C(F)(F)F)cc32)CC1 [trifluoroperazine] | may be used as inhibitors of adenylate cyclase | – | – | –
CN[C@@H]1C[C@H]2O[C@@](C)([C@@H]1OC)n1c3ccccc3c3c4c(c5c6ccccc6n2c5c31)C(=O)NC4 [staurosporine] | – | did not interfere significantly | – | –
Clc1ccc(C(c2ccc(Cl)cc2)n2cc[n+](CC(OCc3ccc(Cl)cc3Cl)c3ccc(Cl)cc3Cl)c2)cc1 (centres unmarked) [calmidazolium] | may be used as inhibitors of adenylate cyclase | – | without any significant interference | inhibited
